Patent US10266544B2, “Aryl substituted aminomethyl spectinomycin analogs as antibacterial agents” (ST. JUDE CHILDREN'S RESEARCH HOSPITAL, INC., priority 2013, dated 2019)
Where a name gives a salt, the structure may show the parent alone. Read-outs that look alike come from different tables or passages of the source.

Assays:
Assay type in all cases: cell-based
[1] = tested on: Bacillus anthracis, Sterne 34F2; experiment: microbe, parasite or virus in culture; settings: STERNE34F2, read-out: MIC B.a.
[2] = tested on: Bacillus subtilis (ATCC 23857); experiment: MIC determination, microbroth dilution
[3] = tested on: Staphylococcus aureus (ATCC 29213); experiment: MIC determination, microbroth dilution; settings: ATCC29213; Staphylococcus aureus (ATCC 29213); read-out: MIC S.a.
[4] = tested on: MRSA, Staphylococcus aureus (NRS70); experiment: MIC determination, microbroth dilution; settings: Staphylococcus aureus (NRS70); read-out: MIC MRSA
[5] = tested on: Streptococcus pneumoniae (R6); experiment: MIC determination, microbroth dilution; settings: read-out: MIC S. pn.
[6] = tested on: Streptococcus pyogenes (ATCC 700294); experiment: MIC determination, microbroth dilution
[7] = tested on: acinetobacter baumannii (ATCC 19606); experiment: MIC determination, microbroth dilution; settings: ATCC19606
[8] = tested on: Burkholderia cepacia (ATCC 25416); experiment: MIC determination, microbroth dilution; settings: Burkholderia cepacia
[9] = tested on: Escherichia coli (ATCC 700926); experiment: MIC determination, microbroth dilution
E. coli K12 ΔtolC = experiment: microbe, parasite or virus in culture; settings: Escherichia coli, read-out: MIC E.c. Δtolc
[10] = tested on: Klebsiella pneumoniae (ATCC 33495); experiment: MIC determination, microbroth dilution; settings: ATCC33495
[11] = tested on: Pseudomonas aeruginosa (PA01); experiment: MIC determination, microbroth dilution
[12] = tested on: Proteus mirabilis (ATCC 25933); experiment: MIC determination, microbroth dilution; settings: ATCC25933
[13] = tested on: Proteus vulgaris (ATCC 33420); experiment: MIC determination, microbroth dilution; settings: ATCC33420
[14] = tested on: Stenotrophomonas maltophilia (ATCC 13637); experiment: MIC determination, microbroth dilution
[15] = tested on: Haemophilus influenza (ATCC 49247); experiment: microbe, parasite or virus in culture; settings: ATCC49247; Haemophilus influenza; 4 μg per disc; range of at least two experiments; read-out: Zone of inhibition H.i.
[16] = tested on: Legionella pneumophila (ATCC 33153); experiment: microbe, parasite or virus in culture; settings: ATCC33153, 72 h, read-out: Zone of inhibition L.p.
[17] = tested on: Neisseria meningitides (ATCC 13077); experiment: Disc diffusion assay; settings: ATCC13077, 4 μg per disc, read-out: Zone of inhibition N.m.
[18] = tested on: Neisseria gonorrhoeae (ATCC 49226); experiment: Disc diffusion assay; settings: ATCC49226, 4 μg per disc, read-out: Zone of inhibition N.g.
Bacillus anthracis = experiment: microbe, parasite or virus in culture; settings: read-out: MIC B.a.
[19] = tested on: M. tuberculosis clinical isolates; experiment: microbe, parasite or virus in culture; settings: Mycobacterium tuberculosis
Listeria monocytogenes = experiment: MIC determination (Table 6)
Moraxella catarrhalis = experiment: MIC determination (Table 6)
[20] = ATCC23857, Bacillus subtilis (ATCC 23857), read-out: MIC B.s.
[21] = ATCC700294, Streptococcus pyogenes (ATCC 700294), read-out: MIC S. py.
[22] = ATCC25416, read-out: MIC B.c., Burkholderia cepacia (ATCC 25416)
[23] = ATCC25416, read-out: MIC B.c., Burkholderia cepacia, Table 6
[24] = ATCC700926, Escherichia coli (ATCC 700926), read-out: MIC E.c.
[25] = ATCC13637, Stenotrophomonas maltophilia (ATCC 13637), read-out: MIC S.m.
[26] = Bacillus subtilis, ATCC23857, read-out: MIC B.s.
[27] = Streptococcus pyogenes, ATCC700294, read-out: MIC S. py.

SMILES	MIC [1] [µg/mL]	MIC [3] [µg/mL]	MIC [4] [µg/mL]	MIC ([5]; Streptococcus pneumoniae (R6)) [µg/mL]	MIC [7] [µg/mL]	MIC [8, 22] [µg/mL]	MIC [8, 23] [µg/mL]	MIC (E. coli K12 ΔtolC) [µg/mL]	MIC [10] [µg/mL]	MIC [11] [µg/mL]	MIC [12] [µg/mL]	MIC [13] [µg/mL]	zone of inhibition at 4 µg/disc [15] [mm]	zone of inhibition at 4 µg/disc [16] [mm]	zone of inhibition at 4 µg/disc [17] [mm]	zone of inhibition at 4 µg/disc [18] [mm]	MIC (Bacillus anthracis) [µg/mL]	MIC ([19]; H37RV, read-out: MIC H37Rv) [µg/mL]	MIC (Listeria monocytogenes) [µg/mL]	MIC (Moraxella catarrhalis) [µg/mL]	further results
CN[C@@H]1[C@H](O)[C@H](NC)[C@H]2O[C@]3(O)[C@H](O[C@@H]2[C@H]1O)O[C@H](C)C[C@@]3(O)CNCCN1CCOCC1 [compound 51, 3′-(R)-3′-[(2-morpholinoethyl)aminomethyl]dihydrospectinomycin tetrahydrochloride]	100 to 200	100 to 200	> 200	100	> 200	> 200	> 200	25 to 50	100 to 200	≥ 200	50 to 100	≥ 200	6	22	6	0	100 to 200	25	25	3.1	MIC [2, 20]: 50 to 100 µg/mL; MIC [6, 21]: 100 µg/mL; MIC [9, 24]: 50 µg/mL; MIC [14, 25]: 50 µg/mL; MIC ([19]; read-out: MIC TN022): 50 µg/mL; MIC ([19]; read-out: MIC TN026): 100 µg/mL
CN[C@@H]1[C@H](O)[C@H](NC)[C@H]2O[C@]3(O)[C@H](O[C@@H]2[C@H]1O)O[C@H](C)C[C@@]3(O)CNCCC1CCOCC1 [compound 52, 3′-(R)-3′-[(2-(tetrahydro-2H-pyran-4-yl)ethyl)aminomethyl]dihydrospectinomycin Trihydrochloride]	50 to 100	200	> 200	25 to 50	> 200	> 200	> 200	25 to 50	100	> 200	200	> 200	10	32	12	7	50 to 100	3.1	12.5	3.1	MIC [2, 20]: 25 µg/mL; MIC [6, 21]: 100 µg/mL; MIC [9, 24]: 50 to 100 µg/mL; MIC [14, 25]: 12.5 to 25 µg/mL; MIC ([19]; read-out: MIC TN022): 6.3 µg/mL; MIC ([19]; read-out: MIC TN026): 3.1 µg/mL
CN[C@@H]1[C@H](O)[C@H](NC)[C@H]2O[C@]3(O)[C@H](O[C@@H]2[C@H]1O)O[C@H](C)C[C@@]3(O)CNCCc1ccc(OC)cc1 [compound 53, 3′-(R)-3′-[(4-methoxy)phenethylaminomethyl]dihydrospectinomycin Trihydrochloride]	25 to 50	25	100	–	> 200	> 200	> 200	12.5	100 to 200	> 200	> 200	200	11	30	10	12	25 to 50	6.3	6.3	3.1	MIC [2, 26]: 12.5 µg/mL; MIC ([5]; Streptococcus pneumoniae): 12.5 µg/mL; MIC [6, 27]: 12.5 to 25 µg/mL; MIC [9, 24]: 50 µg/mL; MIC ([14]; Stenotrophomonas maltophilia, ATCC13637, read-out: MIC S.m.): 12.5 µg/mL; MIC ([19]; read-out: MIC TN022): 12.5 µg/mL; MIC ([19]; read-out: MIC TN026): 12.5 µg/mL
CN[C@@H]1[C@H](O)[C@H](NC)[C@H]2O[C@]3(O)[C@H](O[C@@H]2[C@H]1O)O[C@H](C)C[C@@]3(O)CNCCc1ccc(Cl)cc1 [compound 54, 3′-(R)-3′-[(4-chloro)phenethylaminomethyl]dihydrospectinomycin Trihydrobromide]	200	100 to 200	> 200	25	> 200	> 200	> 200	12.5 to 25	> 200	> 200	> 200	> 200	9	15	7	11	200	25	25	6.3	MIC [2, 20]: 25 to 50 µg/mL; MIC [6, 21]: 25 µg/mL; MIC [9, 24]: 50 to 100 µg/mL; MIC [14, 25]: ≥ 200 µg/mL; MIC ([19]; read-out: MIC TN022): 25 µg/mL; MIC ([19]; read-out: MIC TN026): 50 µg/mL
CN[C@@H]1[C@H](O)[C@H](NC)[C@H]2O[C@]3(O)[C@H](O[C@@H]2[C@H]1O)O[C@H](C)C[C@@]3(O)CNCCc1ccc(C)c(C)c1 [compound 55, 3′-(R)-3′-[(3,4-dimethyl)phenethylaminomethyl]dihydrospectinomycin Trihydrochloride]	100	100	> 200	12.5	> 200	> 200	> 200	12.5 to 25	> 200	> 200	> 200	> 200	9	15	8	11	100	25	25	3.1	MIC [2, 20]: 50 µg/mL; MIC [6, 27]: 12.5 to 25 µg/mL; MIC [9, 24]: 100 to 200 µg/mL; MIC [14, 25]: 50 µg/mL; MIC ([19]; read-out: MIC TN022): 50 µg/mL; MIC ([19]; read-out: MIC TN026): 50 µg/mL
CN[C@@H]1[C@H](O)[C@H](NC)[C@H]2O[C@]3(O)[C@H](O[C@@H]2[C@H]1O)O[C@H](C)C[C@@]3(O)CNCc1ccccc1Cl [compound 56, 3′-(R)-3′-[(2-chloro)benzylaminomethyl]dihydrospectinomycin Trihydrobromide]	> 200	> 200	> 200	100	> 200	> 200	> 200	> 200	> 200	> 200	> 200	> 200	0	0	0	0	> 200	> 200	> 200	100	MIC [2, 20]: > 200 µg/mL; MIC [6, 21]: 50 µg/mL; MIC [9, 24]: > 200 µg/mL; MIC [14, 25]: > 200 µg/mL
CN[C@@H]1[C@H](O)[C@H](NC)[C@H]2O[C@]3(O)[C@H](O[C@@H]2[C@H]1O)O[C@H](C)C[C@@]3(O)CNCCc1ccc(OC(F)(F)F)cc1 [compound 57, 3′-(R)-3′-[(4-trifluoromethoxy)phenethylaminomethyl]dihydrospectinomycin Trihydrochloride]	25	25	50 to 100	3.1	≥ 200	≥ 200	≥ 200	1.3 to 3.1	> 200	> 200	200	200	12	22	15	14	25	12.5	6.3	0.8	MIC [2, 26]: 12.5 µg/mL; MIC [6, 21]: 3.1 to 6.3 µg/mL; MIC ([9]; Escherichia coli, ATCC700926, read-out: MIC E.c.): 25 µg/mL; MIC [14, 25]: 50 to 100 µg/mL; MIC ([19]; read-out: MIC TN022): 6.3 µg/mL; MIC ([19]; read-out: MIC TN026): 25 µg/mL
